Experimental data published in patent publication US5874597A, “Certain aminosterol compounds and pharmaceutical compositions including these compounds” (priority 1995, dated 1999).

Tests used:
[1] = test system: vitelline capillaries of chick embryo; assay: chick embryo vitelline capillary regression assay; assay type: in vivo; settings: Table II
Experimental: Using the chick embryo vitelline capillaries assay, compounds were tested for their ability to induce capillary regression. Each compound was applied in 0.1 ml of 15% Ficol 400 and PBS onto the embryo, and vascular regression was assessed after 60 minutes.
The 3-day chick embryo consists of an embryonic disc from which numerous vessels emerge and return, forming a "figure 8"-shaped structure--the embryo in the center with vascular loops extending outward over both poles. […] Following a lag period of around 15 minutes, the constriction of continuity between capillary and secondary vessels, generally on the "venous" side, was observed. Continued pulsatile blood flow progressed, resulting in a "swelling" of the blind tube, followed by a pinching off of the remaining connection and formation of an enclosed vascular sac resembling a "blood island." This process progressed until only the largest vessels remained intact.

[2] = test system: HM; assay: HM MTT assay; assay type: cell-based; settings: Table II; read-out: HM MTT assay, Minimum Effective Concentration

CC(CCC(=O)O)[C@H]1CCC2C3C(CC[C@@]21C)[C@@]1(C)CC[C@@H](NCCCNCCCCN)CC1C[C@H]3O (single isomer, unassigned)
Chick embryo diss. assay, Minimum Effective Concentration [1]: 0.01 µg
minimal effective concentration [2]: 58.6 µg/mL
